Results from US12268674B2, “Mi-2β inhibitor as an immunotherapy agent” (BioVentures, LLC, priority 2021, dated 2025).

Tests used:
Assay in all cases: ATPase profile (ATP acyl phosphate probe)
Format in all cases: binding
DDX18 = target: T1, DDX18 (Homo sapiens, UniProt Q9NVP1); conditions: DDX18, SEQ ID NO: 66, ATP BS
T1 construct: endogenous in cells; host or cells: A375 cell lysate

UBA1 = UBA1 (Homo sapiens, UniProt P22314); conditions: UBA1, SEQ ID NO: 217, ATP BS
MVK = target: T2, MVK (Homo sapiens, UniProt Q03426); conditions: SEQ ID NO: 127, ATP BS
T2 construct: to get the native cell lysate; endogenous in cells; host or cells: A375

CLPB = target: T3, CLPB (Homo sapiens, UniProt Q9H078); conditions: SEQ ID NO: 58, ATP BS
T3 construct: endogenous in cells; host or cells: A375 cell lysate

ABCC3 = target: T4, ABCC3 (Homo sapiens, UniProt O15438)
T4 construct: host or cells: A375 cell lysate

NME3 = target: T5, NME3 (Homo sapiens, UniProt Q13232); conditions: NME3, SEQ ID NO: 134, ATP BS
T5 construct: to get the native cell lysate; endogenous in cells; host or cells: A375

HSPA9 = target: T6, HSPA9 (Homo sapiens, UniProt P38646); conditions: HSPA9, SEQ ID NO: 108, ATP BS
T6 construct: to get the native cell lysate; endogenous in cells; host or cells: A375

VCP = target: T7, VCP (Homo sapiens, UniProt P55072)
T7 construct: to get the native cell lysate; endogenous in cells; host or cells: A375 cell lysate

RUVBL1 = target: T8, RUVBL1 (Homo sapiens, UniProt Q9Y265); conditions: RUVBL1, SEQ ID NO: 188, ATP BS
T8 construct: to get the native cell lysate; endogenous in cells; host or cells: A375 cell lysate

TOP2A, TOP2B = conditions: SEQ ID NO: 202, ATP BS
SUCLA2 = target: T9, SUCLA2 (Homo sapiens, UniProt Q9P2R7)
T9 construct: to get the native cell lysate; endogenous in cells; host or cells: A375 cell lysate

CCT7 = target: T10, CCT7 (Homo sapiens, UniProt Q99832); conditions: CCT7, SEQ ID NO: 55, ATP BS
T10 construct: host or cells: A375 cell lysate

ABCF1 = target: T11, ABCF1 (Homo sapiens, UniProt Q8NE71); conditions: ABCF1, SEQ ID NO: 16, ATP BS
T11 construct: to get the native cell lysate; host or cells: A375 cell lysate

ABCE1 = target: T12, ABCE1 (Homo sapiens, UniProt P61221); conditions: ABCE1, SEQ ID NO: 15, ATP BS
T12 construct: to get the native cell lysate; host or cells: A375 cell lysate

DHX15 = target: T13, DHX15 (Homo sapiens, UniProt O43143); conditions: DHX15, SEQ ID NO: 72, ATP BS
T13 construct: endogenous in cells; host or cells: A375 cell lysate

SMC1A = target: T14, SMC1A (Homo sapiens, UniProt Q14683); conditions: SEQ ID NO: 193, ATP BS
T14 construct: to get the native cell lysate; endogenous in cells; host or cells: A375 cell lysate

ATP5B = target: T15, ATP5B (Homo sapiens, UniProt P06576); conditions: SEQ ID NO: 48, ATP BS
T15 construct: to get the native cell lysate; host or cells: A375 cell lysate

NUDT7 = target: T16, NUDT7 (Homo sapiens, UniProt P0C024); conditions: NUDT7, SEQ ID NO: 147, ATP BS
T16 construct: to get the native cell lysate; endogenous in cells; host or cells: A375

PRKAG1, PRKAG2 = conditions: PRKAG1, PRKAG2, SEQ ID NO: 169, ATP BS
MCM4 = target: T17, MCM4 (Homo sapiens, UniProt P33991); conditions: MCM4, SEQ ID NO: 118, ATP BS; read-out: Inhibition (%) by 1 μM Z36-MP5
T17 construct: to get the native cell lysate; endogenous in cells; host or cells: A375

PSMD9 = PSMD9 (Homo sapiens, UniProt O00233); conditions: PSMD9, SEQ ID NO: 179, ATP BS; read-out: Inhibition (%) by 1 μM Z36-MP5
PPCS = target: T18, PPCS (Homo sapiens, UniProt Q9HAB8)
T18 construct: to get the native cell lysate; endogenous in cells; host or cells: A375 cell lysate

NUDT2 = target: T19, NUDT2 (Homo sapiens, UniProt P50583)
T19 construct: to get the native cell lysate; endogenous in cells; host or cells: A375

NADSYN1 = target: T20, NADSYN1 (Homo sapiens, UniProt Q6IA69); conditions: NADSYN1, SEQ ID NO: 130, ATP BS
T20 construct: to get the native cell lysate; endogenous in cells; host or cells: A375

HSPA1A = target: T21, HSPA1A (Homo sapiens, UniProt P0DMV8)
T21 construct: to get the native cell lysate; endogenous in cells; host or cells: A375

BAT1 = target: T22, BAT1 (Homo sapiens, UniProt Q13838); conditions: BAT1, SEQ ID NO: 49, ATP BS
T22 construct: to get the native cell lysate; host or cells: A375 cell lysate

CNP = target: T23, CNP (Homo sapiens, UniProt P09543); conditions: SEQ ID NO: 61, ATP BS
T23 construct: endogenous in cells; host or cells: A375 cell lysate

CMPK1 = target: T24, CMPK1 (Homo sapiens, UniProt P30085); conditions: CMPK1, SEQ ID NO: 60, ATP BS
T24 construct: endogenous in cells; host or cells: A375 cell lysate

AK7 = target: T25, AK7 (Homo sapiens, UniProt Q96M32); conditions: AK7, SEQ ID NO: 37, ATP BS
T25 construct: to get the native cell lysate; host or cells: A375 cell lysate

T7 sequence (P55072 2-806 limits assumed): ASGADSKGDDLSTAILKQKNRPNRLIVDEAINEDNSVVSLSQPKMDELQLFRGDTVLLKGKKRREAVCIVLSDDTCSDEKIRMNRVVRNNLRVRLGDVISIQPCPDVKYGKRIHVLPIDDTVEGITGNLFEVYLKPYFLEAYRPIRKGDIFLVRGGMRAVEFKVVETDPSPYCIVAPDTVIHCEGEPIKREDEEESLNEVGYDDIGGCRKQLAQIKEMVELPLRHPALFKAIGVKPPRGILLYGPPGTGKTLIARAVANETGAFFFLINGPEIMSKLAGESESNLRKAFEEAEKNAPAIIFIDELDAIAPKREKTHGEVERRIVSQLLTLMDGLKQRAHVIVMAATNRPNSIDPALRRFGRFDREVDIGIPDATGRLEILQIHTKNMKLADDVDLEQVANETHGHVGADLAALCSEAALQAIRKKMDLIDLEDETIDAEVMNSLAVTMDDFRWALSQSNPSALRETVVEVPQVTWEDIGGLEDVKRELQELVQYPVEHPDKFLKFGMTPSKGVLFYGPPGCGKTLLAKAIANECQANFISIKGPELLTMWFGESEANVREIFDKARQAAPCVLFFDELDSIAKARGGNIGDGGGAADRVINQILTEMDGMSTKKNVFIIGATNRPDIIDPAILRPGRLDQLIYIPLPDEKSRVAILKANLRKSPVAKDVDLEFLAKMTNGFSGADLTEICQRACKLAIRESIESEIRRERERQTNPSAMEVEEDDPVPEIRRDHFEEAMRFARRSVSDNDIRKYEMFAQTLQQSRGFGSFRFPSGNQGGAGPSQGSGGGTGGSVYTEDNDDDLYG
T18 sequence (Q9HAB8 whole entry): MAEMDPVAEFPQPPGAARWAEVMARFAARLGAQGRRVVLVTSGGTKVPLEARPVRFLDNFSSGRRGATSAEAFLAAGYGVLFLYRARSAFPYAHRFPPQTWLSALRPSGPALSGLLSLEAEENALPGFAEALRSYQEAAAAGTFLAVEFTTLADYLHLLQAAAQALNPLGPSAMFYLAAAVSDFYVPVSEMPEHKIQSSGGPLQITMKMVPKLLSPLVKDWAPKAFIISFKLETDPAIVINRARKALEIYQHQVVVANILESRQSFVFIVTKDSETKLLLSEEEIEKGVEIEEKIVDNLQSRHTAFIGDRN
T9 sequence (Q9P2R7 53-463): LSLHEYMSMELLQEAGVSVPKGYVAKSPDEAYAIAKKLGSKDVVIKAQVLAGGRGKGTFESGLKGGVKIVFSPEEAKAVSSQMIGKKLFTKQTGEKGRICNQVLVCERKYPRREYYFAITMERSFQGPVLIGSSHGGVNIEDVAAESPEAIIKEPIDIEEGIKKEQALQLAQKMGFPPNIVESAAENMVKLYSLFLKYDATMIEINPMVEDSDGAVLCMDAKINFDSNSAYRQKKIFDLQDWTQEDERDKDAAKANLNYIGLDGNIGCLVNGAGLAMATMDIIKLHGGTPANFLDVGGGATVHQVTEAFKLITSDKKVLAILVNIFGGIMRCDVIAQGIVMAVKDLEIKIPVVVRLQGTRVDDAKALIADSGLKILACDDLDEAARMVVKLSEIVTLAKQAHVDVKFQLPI
T9 sequence (P53597 41-346 partner): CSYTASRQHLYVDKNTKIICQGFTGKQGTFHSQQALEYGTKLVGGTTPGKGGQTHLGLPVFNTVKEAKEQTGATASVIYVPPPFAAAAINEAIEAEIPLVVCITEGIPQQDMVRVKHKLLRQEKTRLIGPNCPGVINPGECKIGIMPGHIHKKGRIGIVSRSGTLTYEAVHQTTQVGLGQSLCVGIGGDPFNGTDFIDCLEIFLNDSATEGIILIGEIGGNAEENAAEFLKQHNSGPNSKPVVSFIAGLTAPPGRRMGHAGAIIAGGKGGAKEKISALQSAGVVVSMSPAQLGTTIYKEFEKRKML
T19 sequence (P50583 whole entry): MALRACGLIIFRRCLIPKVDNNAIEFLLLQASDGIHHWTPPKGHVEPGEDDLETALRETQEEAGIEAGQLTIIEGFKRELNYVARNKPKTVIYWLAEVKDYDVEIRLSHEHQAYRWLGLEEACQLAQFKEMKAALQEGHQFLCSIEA
T21 sequence (P0DMV8 whole entry): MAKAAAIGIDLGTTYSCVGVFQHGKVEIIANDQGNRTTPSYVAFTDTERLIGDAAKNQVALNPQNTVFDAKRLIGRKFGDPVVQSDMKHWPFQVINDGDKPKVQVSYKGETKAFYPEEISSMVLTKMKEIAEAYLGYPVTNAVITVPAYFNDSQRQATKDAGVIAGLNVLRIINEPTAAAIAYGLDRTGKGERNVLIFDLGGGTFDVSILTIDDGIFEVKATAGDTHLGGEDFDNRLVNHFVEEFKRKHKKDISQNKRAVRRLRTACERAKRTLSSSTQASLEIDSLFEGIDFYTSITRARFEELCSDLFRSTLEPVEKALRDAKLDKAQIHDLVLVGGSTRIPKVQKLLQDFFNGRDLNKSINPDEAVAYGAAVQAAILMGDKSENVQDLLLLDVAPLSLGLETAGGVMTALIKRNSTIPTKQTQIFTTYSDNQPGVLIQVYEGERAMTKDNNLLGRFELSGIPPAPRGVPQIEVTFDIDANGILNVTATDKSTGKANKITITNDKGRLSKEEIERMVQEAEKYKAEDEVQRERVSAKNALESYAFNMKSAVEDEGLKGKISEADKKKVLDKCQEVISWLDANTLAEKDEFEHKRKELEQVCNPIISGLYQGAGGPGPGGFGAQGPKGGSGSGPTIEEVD
T4 sequence (O15438 whole entry): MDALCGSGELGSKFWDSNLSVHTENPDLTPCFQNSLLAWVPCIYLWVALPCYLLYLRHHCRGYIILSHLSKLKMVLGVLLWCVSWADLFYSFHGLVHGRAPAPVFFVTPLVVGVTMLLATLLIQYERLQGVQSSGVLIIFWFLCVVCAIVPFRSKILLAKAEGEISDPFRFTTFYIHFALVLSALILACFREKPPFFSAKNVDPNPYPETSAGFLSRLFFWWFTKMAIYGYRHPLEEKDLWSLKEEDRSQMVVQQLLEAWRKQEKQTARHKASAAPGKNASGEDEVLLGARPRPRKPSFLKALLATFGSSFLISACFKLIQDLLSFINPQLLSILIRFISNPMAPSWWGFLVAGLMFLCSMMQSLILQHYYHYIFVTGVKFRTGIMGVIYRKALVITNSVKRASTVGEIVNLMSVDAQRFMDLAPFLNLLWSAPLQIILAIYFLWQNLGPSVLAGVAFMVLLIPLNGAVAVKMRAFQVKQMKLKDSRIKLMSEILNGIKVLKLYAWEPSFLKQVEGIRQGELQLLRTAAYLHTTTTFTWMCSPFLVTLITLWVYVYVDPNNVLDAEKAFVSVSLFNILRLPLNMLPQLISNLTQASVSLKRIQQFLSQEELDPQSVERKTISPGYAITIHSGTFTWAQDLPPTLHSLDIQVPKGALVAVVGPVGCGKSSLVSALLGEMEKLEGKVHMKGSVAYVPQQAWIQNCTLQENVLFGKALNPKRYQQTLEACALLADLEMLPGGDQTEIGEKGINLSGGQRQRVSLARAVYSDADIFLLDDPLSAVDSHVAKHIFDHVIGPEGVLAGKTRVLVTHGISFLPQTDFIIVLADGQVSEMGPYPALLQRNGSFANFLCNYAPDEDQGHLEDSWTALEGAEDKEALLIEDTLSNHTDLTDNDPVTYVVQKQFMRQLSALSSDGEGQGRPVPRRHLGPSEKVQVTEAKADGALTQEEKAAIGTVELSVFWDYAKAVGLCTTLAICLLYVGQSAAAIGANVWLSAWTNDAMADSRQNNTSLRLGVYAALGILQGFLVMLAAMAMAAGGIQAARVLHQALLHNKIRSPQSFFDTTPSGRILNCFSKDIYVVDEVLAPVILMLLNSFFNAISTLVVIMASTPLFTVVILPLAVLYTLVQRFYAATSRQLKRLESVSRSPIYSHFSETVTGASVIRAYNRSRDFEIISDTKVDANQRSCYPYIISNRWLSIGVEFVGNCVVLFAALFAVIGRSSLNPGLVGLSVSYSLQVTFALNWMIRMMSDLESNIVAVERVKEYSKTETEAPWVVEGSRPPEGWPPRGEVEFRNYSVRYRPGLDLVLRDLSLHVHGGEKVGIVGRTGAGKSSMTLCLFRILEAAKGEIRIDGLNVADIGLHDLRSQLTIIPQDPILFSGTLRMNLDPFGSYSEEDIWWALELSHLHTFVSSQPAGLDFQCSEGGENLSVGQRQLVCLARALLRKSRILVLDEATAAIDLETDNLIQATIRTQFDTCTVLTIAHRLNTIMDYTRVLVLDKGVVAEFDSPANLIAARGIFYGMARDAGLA
T3 sequence (Q9H078 127-707 limits assumed): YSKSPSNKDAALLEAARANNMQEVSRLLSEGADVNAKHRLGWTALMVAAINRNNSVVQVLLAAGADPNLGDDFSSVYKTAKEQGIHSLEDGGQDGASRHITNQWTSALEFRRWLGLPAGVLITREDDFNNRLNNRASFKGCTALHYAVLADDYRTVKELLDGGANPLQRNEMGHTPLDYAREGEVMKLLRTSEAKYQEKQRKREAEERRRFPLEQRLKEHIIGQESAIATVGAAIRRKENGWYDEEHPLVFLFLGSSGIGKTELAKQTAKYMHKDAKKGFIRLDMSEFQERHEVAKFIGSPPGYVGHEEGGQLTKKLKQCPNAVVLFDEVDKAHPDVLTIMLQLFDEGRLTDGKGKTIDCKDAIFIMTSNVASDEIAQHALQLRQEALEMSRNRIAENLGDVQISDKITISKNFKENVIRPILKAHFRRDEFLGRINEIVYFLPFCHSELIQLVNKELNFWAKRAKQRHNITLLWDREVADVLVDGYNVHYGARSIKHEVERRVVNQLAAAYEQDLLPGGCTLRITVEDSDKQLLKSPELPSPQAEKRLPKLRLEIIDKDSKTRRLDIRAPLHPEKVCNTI
T5 sequence (Q13232 whole entry): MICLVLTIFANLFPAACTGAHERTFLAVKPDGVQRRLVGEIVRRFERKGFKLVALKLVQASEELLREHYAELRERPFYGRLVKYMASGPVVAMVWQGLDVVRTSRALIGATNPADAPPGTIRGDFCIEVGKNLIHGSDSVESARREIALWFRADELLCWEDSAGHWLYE

Cn1c(=O)[nH]c2ccc(-c3cccc(C(=O)NC4CCn5ccnc5C4)c3)cc21 (stereo not shown) [Z36-MP5, 3-(3-methyl-2-oxo-2,3-dihydro-1H-benzo[d]imidazol-5-yl)-N-(5,6,7,8-tetrahydroimidazo[1,2-a]pyridin-7-yl)benzamide]
Inhibition (%) by 1 μM Z36-MP5 (DDX18): −5.33%
Inhibition (%) by 1 μM Z36-MP5 (UBA1): −4.55%
Inhibition (%) by 1 μM Z36-MP5 (MVK): 15.38%
Inhibition (%) by 1 μM Z36-MP5 (CLPB): −9.00%
Inhibition (%) by 1 μM Z36-MP5 (ABCC3; ABCC3, SEQ ID NO: 9, ATP BS): 4.57%
Inhibition (%) by 1 μM Z36-MP5 (ABCC3; ABCC3, SEQ ID NO: 10, ATP BS): 9.43%
Inhibition (%) by 1 μM Z36-MP5 (NME3): 1.91%
Inhibition (%) by 1 μM Z36-MP5 (HSPA9): −4.09%
Inhibition (%) by 1 μM Z36-MP5 (VCP; SEQ ID NO: 225, ATP BS): −8.02%
Inhibition (%) by 1 μM Z36-MP5 (VCP; SEQ ID NO: 226, ATP BS): −2.36%
Inhibition (%) by 1 μM Z36-MP5 (VCP; SEQ ID NO: 227, ATP BS): −7.20%
Inhibition (%) by 1 μM Z36-MP5 (VCP; SEQ ID NO: 228, ATP BS): 7.80%
Inhibition (%) by 1 μM Z36-MP5 (RUVBL1): −15.57%
Inhibition (%) by 1 μM Z36-MP5 (TOP2A, TOP2B): 11.93%
Inhibition (%) by 1 μM Z36-MP5 (SUCLA2; SUCLA2, SEQ ID NO: 198, ATP BS): −0.65%
Inhibition (%) by 1 μM Z36-MP5 (SUCLA2; SUCLA2, SEQ ID NO: 199, ATP BS): 9.97%
Inhibition (%) by 1 μM Z36-MP5 (CCT7): 10.91%
Inhibition (%) by 1 μM Z36-MP5 (ABCF1): −8.08%
Inhibition (%) by 1 μM Z36-MP5 (ABCE1): −4.76%
Inhibition (%) by 1 μM Z36-MP5 (DHX15): −5.22%
Inhibition (%) by 1 μM Z36-MP5 (SMC1A): 5.67%
Inhibition (%) by 1 μM Z36-MP5 (ATP5B): −14.96%
Inhibition (%) by 1 μM Z36-MP5 (NUDT7): 19.75%
Inhibition (%) by 1 μM Z36-MP5 (PRKAG1, PRKAG2): −7.97%
inhibition at 1 µM (MCM4): 4.98%
inhibition at 1 µM (PSMD9): 2.13%
Inhibition (%) by 1 μM Z36-MP5 (PPCS; SEQ ID NO: 165, ATP BS): −7.44%
Inhibition (%) by 1 μM Z36-MP5 (PPCS; SEQ ID NO: 166, ATP BS): −9.61%
Inhibition (%) by 1 μM Z36-MP5 (NUDT2; NUDT2, SEQ ID NO: 145, ATP BS): 19.18%
Inhibition (%) by 1 μM Z36-MP5 (NUDT2; NUDT2, SEQ ID NO: 146, ATP BS): 11.64%
Inhibition (%) by 1 μM Z36-MP5 (NADSYN1): −2.19%
Inhibition (%) by 1 μM Z36-MP5 (HSPA1A; SEQ ID NO: 100, ATP BS): −9.44%
Inhibition (%) by 1 μM Z36-MP5 (HSPA1A; SEQ ID NO: 101, ATP BS): −15.23%
Inhibition (%) by 1 μM Z36-MP5 (BAT1): −9.58%
Inhibition (%) by 1 μM Z36-MP5 (CNP): −17.28%
Inhibition (%) by 1 μM Z36-MP5 (CMPK1): 2.41%
Inhibition (%) by 1 μM Z36-MP5 (AK7): 13.86%
